According to the METLIN SMRT retention time set (Domingo-Almenara et al. 2019):

Test: gradient 5% acetonitrile 3 min, to 50% in 2 min, to 85% in 15 min, held 3 min, 100 µL/min
Conditions: column: Zorbax Extend-C18 2.1 x 50 mm; eluents: water / acetonitrile, 0.1% formic acid
How it was run: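 The mobile phases were water and acetonitrile, each with 0.1% formic acid, pumped at 100 μL/min through a Zorbax Extend-C18 column (2.1 × 50 mm, 1.8 μm). Pure standards were injected as mixtures of ~100 molecules and detected by a quadrupole time-of-flight mass spectrometer in positive and negative ionization mode. Retention time came from computationally picked adduct peaks, each inspected by hand.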

SMILES	RP-LC retention time [s]
COc1cc(CNC(=O)COc2ccc(NC(=O)C3CC3)cn2)cc(OC)c1	713
CCN1C(=O)c2cccnc2Sc2cc(NC(=O)C3(c4ccc(OC)cc4)CC3)ccc21	939
Cc1cc(=O)n(CC(=O)NCc2ccc(F)c(Cl)c2)c(N2CCCCC2)n1	716
Cn1c(C2CCN(C(=O)Nc3ccccc3Br)CC2)cc(=O)n2nccc12	654
Cc1ccc(NC(=O)c2cn(C)nc2S(=O)(=O)N2CCSCC2)cc1C	987
Cc1c(C)n(-c2ccc(Cl)cc2)c2ncn(CC(=O)NC3CCCCC3)c(=O)c12	644
Cc1cc(C)cc(-c2nnc(Cc3nc(-c4ccccc4)no3)o2)c1	1130
O=C(Nc1nc(CC(=O)N2CCN(c3ccccc3O)CC2)cs1)c1cnccn1	612
Cc1ccc(C)c(N2C(=O)CN(S(C)(=O)=O)CC2(C)C(=O)NCc2ccccc2)c1 (stereo not given)	809
CN1CCN(CCNC(=O)CCCN2C(=O)C(c3ccccc3)Oc3cccnc32)CC1 (stereo not given)	605
CCCc1cc(NCCN(C)C)n2ncc(-c3ccccc3)c2n1	660
COc1ccc(-c2cc3nn(CC(=O)Nc4ccc(C)c(C)c4)c(=O)n3c(C)n2)cc1	980
CCc1ccccc1NC(=O)C1CCN(S(=O)(=O)c2cc(C(=O)N3CCCC3)cs2)CC1	799
CN(C)c1ccc(CNc2ncccc2-c2nnc(-c3ccccc3)o2)cc1	884
CCS(=O)(=O)Nc1ccc(C2(C(=O)NC(C)c3ccccc3)CCCCC2)cc1 (stereo not given)	976
CC(C)n1nnc2cc(C(=O)N(C)CC(=O)Nc3ccc(F)cc3F)ccc21	744
CC(C)NC(=O)C1CCC(=O)N1C1CCN(C(=O)C2CCCCC2)CC1 (stereo not given)	591

SMILES	RP-LC retention time [s]
CCOc1ccccc1CN1C(=O)c2ccccc2C1C(=O)NC(C)CC (stereo not given)	899
CC(=O)c1ccc(NS(=O)(=O)c2ccccc2[N+](=O)[O-])cc1	729
CC(C)c1noc(C2CCCN(S(=O)(=O)c3cn(C)cn3)CCC(=O)NCC2)n1 (stereo not given)	640
O=C(Nc1ccc(Cl)c(N2CCCS2(=O)=O)c1)c1ccno1	676
O=c1ccc(-c2ccc3c(c2)OCO3)nn1CCc1nc(-c2ccccc2)no1	908
COc1ccccc1CNc1c(-c2ccc(OC(C)C)cc2)nc2ncccn12	826
COc1ccc(-c2nnc(COc3cccc(NC(=O)C(NC(=O)c4ccco4)C(C)C)c3)o2)cc1 (stereo not given)	1010
Cn1c(=O)c(NCc2cccc(C(F)(F)F)c2)nc2ccncc21	658
COc1ccccc1-c1cc2c(=O)n(Cc3nc(-c4ccccc4)oc3C)ccn2n1	1120
COCCCN1C(=O)CSc2c(c3ccccc3n2C)C1C(=O)NCc1ccccc1OC (stereo not given)	893
Cc1ccc2c(c1)N(S(C)(=O)=O)CCC(C(=O)Nc1ccccc1)O2 (stereo not given)	892
Nc1ccc(Oc2ccc(N)c([N+](=O)[O-])c2)cc1[N+](=O)[O-]	899
CCCn1nnnc1NCc1ccc2c(c1)n(C)c(=O)n2C	638
Cc1ccc(CN2CCCC(c3nc(-c4cnccn4)no3)CCNC(=O)CC2)s1 (stereo not given)	603
COc1ccc(Cl)cc1S(=O)(=O)Nc1cccn2c(C3CCC3)nnc12	849
Cc1ccc(C)c(S(=O)(=O)N2CCc3c(c(-c4nnc(-c5ccccc5F)o4)nn3C)C2)c1	1010
Cc1noc(-c2cc(=O)n(CC(=O)Nc3ccc(F)c(F)c3)c3ccccc23)n1	890

The next lines start with the values.

RP-LC retention time [s]	SMILES
1040	Cc1ccc(CNC(=O)Cn2nc(C)c3nn(-c4ccc(Cl)cc4)c(-n4cccc4)c3c2=O)o1
586	Cc1nn(C(=O)CC(C)C)c(C)c1S(=O)(=O)N1CCCC1
695	O=C(NCc1c(F)cccc1F)c1csc(Nc2ncccn2)n1
840	COC(=O)CN1C(=O)Nc2ccc(C)cc2C1c1ccccc1 (stereo not given)
652	CCOCCCNC(=O)N1CCC2(CC1)NC(=O)c1ccccc1O2
726	O=C(c1ccc(-c2cccnc2)nc1)N1CCN(c2cccc(Cl)c2)CC1
1180	Fc1ccc(-c2noc(-c3ccc(N4CCC5(CC4)OCCO5)nc3)n2)cc1
763	O=C1COc2ccc(S(=O)(=O)N3CCC(C(=O)Nc4ccc(F)cc4F)CC3)cc2N1
883	CN(C)Cc1cc(C(F)(F)F)ccc1C(O)(c1ccccc1)c1ccccc1
1020	COc1ccc(-n2c(=O)n(C)c(=O)c3cc(C(=O)Nc4cccc(OC)c4)cnc32)cc1
868	Cc1nc(-c2ccccc2)nc2c1CCC(=O)N2C
1040	CCN1C(=O)COc2ccc(-c3noc(-c4ccc5cc[nH]c5c4)n3)cc21
1230	CCOc1ccc(-c2nc(-c3cccc(-c4ccnn4C)c3)no2)cc1
844	O=C(CCc1nc2ccccc2n(CC(=O)NC2CCCCC2)c1=O)NC1CCCCC1
785	COc1ccc(F)cc1S(=O)(=O)NCC1(C)CCOCC1
671	Cc1cccn2cc(-c3cccc(S(=O)(=O)N4CC(C)OC(C)C4)c3)nc12 (stereo not given)

RP-LC retention time [s]	SMILES
956	CC(NC(=O)CN1C(=O)C2CCCCN2c2ccc(S(=O)(=O)N3CCCC3)cc21)c1ccccc1 (stereo not given)
668	COCCNC(=O)CSc1nccc2c1ccn2Cc1ccc(F)cc1
822	CCc1ccc(NC(=O)Cn2nc(C(=O)N3CCOCC3)c3ccccc32)cc1
678	N#CCCN1CCN(c2ccc(NC(=O)c3ccc(Br)cc3)c(C(=O)O)c2)CC1
672	O=C(Cn1ncc2c(c1=O)N(C1CC1)C(=O)CS2)NC1CCCCC1
654	COc1ccc(CSc2ncnc3nc[nH]c23)cc1
910	CCOc1nc2c(c(C)nn2-c2cccc(C)c2)c(C)c1CCC(=O)N1CCN(c2ccccn2)CC1
645	O=C(Nc1ccc2c(c1)OCCO2)N1CCN(c2cc(-c3ccccc3)ncn2)CC1
736	O=C(NC1CCN(c2cc(-c3ccc(F)cc3)[nH]n2)C1)c1ccc(F)cc1F (stereo not given)
589	COc1ccccc1CNC(=O)c1cn2c(n1)CCCC2
1180	CCN(CC)c1nc2cc(C(=O)OC)ccc2c(=O)n1Cc1ccc(F)cc1
1120	COc1ccc(CN2C=C(C(=O)OCc3noc(-c4cccc(OC)c4)n3)C(C)=NS2(=O)=O)cc1
695	O=C(CN1CCN(c2ccc(Cl)cc2)C1=O)N1CCN(C(=O)c2ccco2)CC1
1230	CCN1C(=O)COc2ccc(-c3noc(-c4ccccc4C)n3)cc21
793	CCc1ccc(N2C[C@@]34C=C[C@@H](O3)[C@H](C(=O)OC)[C@@H]4C2=O)cc1
